Assay results reported in paper doi:10.1101/2025.04.10.648262, “Time-resolved phenotyping at subcellular resolution reveals shared principles and key trade-offs across antimicrobial peptide activities” (bioRxiv, 2026).
Read-outs that look alike come from different tables or passages of the source. Bridge positions count the residues as written; N and C are the ends. Square brackets hold non-standard residues; d marks the D form. Peptide text beside a SMILES is read from it. Nspe = C[C@H](NCC(=O)O)c1ccccc1; Nlys = NCCCCNCC(=O)O

System: E. coli (MG1655)
Assay type: cell-based, Escherichia coli
Procedure, shortened: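 Exponential-phase cells grown at 37°C in M9gluCAAT (glucose, casamino acids) were mixed with titrated peptide to ~250 cells/mL (OD 5 × 10^−7). OD was read every 5 min for 48 h. MIC was the lowest concentration keeping maximum growth rate < 0.2 log(OD)/h within 20 h, taken as the mode of at least three independent experiments.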

Structure (SMILES) | MIC (mode MIC) (MG1655, 20 h) | MIC (mode MIC) (E. coli MG1655, M9gluCAAT, 37°C, 20 h, inoculum ~250 cells/mL, max growth rate < 0.2 log(OD)/h, mode across three biological replicates with two technical replicates each)
CC[C@@H](C)[C@@H](NC(=O)[C@@H](C)NC(=O)[C@@H](CCCNC(=N)N)NC(=O)[C@@H](Cc1c[nH]c2ccccc12)NC(=O)[C@@H](CCC(N)=O)NC(=O)[C@H](N)C(C)C)C(=O)N[C@H](CCCNC(=N)N)C(=O)N[C@@H](C(=O)N[C@H](CCCNC(=N)N)C(=O)N[C@@H](C(=O)N[C@@H](C(=O)N[C@H](CCCNC(=N)N)C(N)=O)[C@H](C)CC)C(C)C)C(C)C [DJK-5] (H-[dV][dQ][dW][dR][dA][dI][dR][dV][dR][dV][dI][dR]-NH2; N-terminus and C-terminus assumed) | 2.5 µM | –
C[C@@H](c1ccccc1)N(CC(N)=O)C(=O)CN(C(=O)CN(CCCCN)C(=O)CN(C(=O)CN(C(=O)CN(CCCCN)C(=O)CN(C(=O)CN(C(=O)CN(CCCCN)C(=O)CN(C(=O)CN(C(=O)CNCCCCN)[C@@H](C)c1ccccc1)[C@@H](C)c1ccccc1)[C@@H](C)c1ccccc1)[C@@H](C)c1ccccc1)[C@@H](C)c1ccccc1)[C@@H](C)c1ccccc1)[C@@H](C)c1ccccc1 [TM1] (H-[Nlys][Nspe][Nspe][Nlys][Nspe][Nspe][Nlys][Nspe][Nspe][Nlys][Nspe][Nspe]-NH2) | – | 2.5 µM
CC[C@H](C)[C@@H]1NC(=O)CNC(=O)[C@H](CCCNC(=N)N)NC(=O)[C@H](Cc2ccc(O)cc2)NC(=O)[C@@H]2CSSC[C@H](NC1=O)C(=O)N[C@@H](Cc1ccc(O)cc1)C(=O)N[C@@H](CCCNC(=N)N)C(=O)N[C@@H](CCCNC(=N)N)C(=O)N[C@H](C(=O)N[C@@H](CCCNC(=N)N)C(N)=O)CSSC[C@H](NC(=O)[C@H](Cc1c[nH]c3ccccc13)NC(=O)[C@@H](N)CCCCN)C(=O)N[C@@H](Cc1ccccc1)C(=O)N[C@@H](CCCNC(=N)N)C(=O)N[C@@H](C(C)C)C(=O)N2 [Tac1, tachyplesin-1] (H-KWCFRVCYRGICYRRCR-NH2; disulfide 3-16, 7-12 (inferred); N-terminus assumed) | 0.6 µM | –
